Test results as given in patent US9822147B2, “Methods of treating ophthalmic diseases using NPR-B agonists” (priority 2009, dated 2017).
Numbered stars: 1 amine (or outer) side, 2 acyl side, 3 side chain; on linkers, the order of the positions; unused ones are H or OH. Square brackets hold non-standard residues; d marks the D form. Peptide text beside a SMILES is read from it. * marks the point of attachment. X2 = O=C([C@H]1CCCN([*:1])C1)[*:2]; Hyp = O=C(O)[C@@H]1C[C@@H](O)CN1; dNle = CCCC[C@@H](N)C(=O)O; Octanoyl = CCCCCCCC(=O)*

target: T1, NPR-B (Homo sapiens, UniProt P20594); test: NPR-B induced production of cyclic GMP in human glaucoma trabecular meshwork cells (GTM-3); format: cell-based; conditions: group by EC50 and Emax (CNP = 100%); Table 4; read-out: Activity (group), NPR-B activation assayed with GTM-3 cells
T1 construct: a functional assay using endogenously NPR-B expressing GTM-3 cells; endogenous in cells; host or cells: GTM-3 (human glaucoma trabecular meshwork cells)
T1 sequence (P20594 23-1047): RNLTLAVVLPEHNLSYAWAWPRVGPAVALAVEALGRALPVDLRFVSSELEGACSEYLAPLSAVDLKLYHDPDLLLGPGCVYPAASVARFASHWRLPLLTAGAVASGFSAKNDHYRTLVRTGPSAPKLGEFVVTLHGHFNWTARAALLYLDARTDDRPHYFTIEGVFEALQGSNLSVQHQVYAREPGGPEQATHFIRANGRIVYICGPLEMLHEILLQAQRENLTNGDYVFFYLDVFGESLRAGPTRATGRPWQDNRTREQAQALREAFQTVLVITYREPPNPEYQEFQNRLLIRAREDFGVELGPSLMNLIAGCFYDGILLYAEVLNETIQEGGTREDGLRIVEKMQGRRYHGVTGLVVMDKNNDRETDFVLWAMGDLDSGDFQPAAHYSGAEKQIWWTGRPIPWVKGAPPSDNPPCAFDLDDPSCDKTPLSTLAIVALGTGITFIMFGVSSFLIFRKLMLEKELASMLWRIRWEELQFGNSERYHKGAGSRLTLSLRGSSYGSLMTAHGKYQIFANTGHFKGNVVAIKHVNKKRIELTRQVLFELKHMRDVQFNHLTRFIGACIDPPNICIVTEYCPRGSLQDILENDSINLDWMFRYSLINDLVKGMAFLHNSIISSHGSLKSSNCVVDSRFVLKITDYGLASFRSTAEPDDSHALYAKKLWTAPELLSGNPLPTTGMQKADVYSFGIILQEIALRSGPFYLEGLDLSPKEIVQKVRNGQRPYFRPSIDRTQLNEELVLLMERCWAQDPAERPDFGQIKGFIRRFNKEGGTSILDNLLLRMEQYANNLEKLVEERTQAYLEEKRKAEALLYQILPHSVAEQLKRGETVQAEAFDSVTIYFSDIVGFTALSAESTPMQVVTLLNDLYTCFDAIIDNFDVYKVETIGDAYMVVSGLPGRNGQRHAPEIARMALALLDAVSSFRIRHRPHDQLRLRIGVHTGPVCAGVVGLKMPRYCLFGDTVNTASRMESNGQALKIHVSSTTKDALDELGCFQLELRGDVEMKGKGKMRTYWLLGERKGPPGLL

EC50, < 1000 nM:
CCCCCCCC(=O)N1CCC[C@H](C(=O)N[C@@H](Cc2ccccc2)C(=O)N[C@H](CCCC)C(=O)N[C@@H](CC(C)C)C(=O)N2C[C@H](O)C[C@H]2C(=O)N[C@@H](CC(C)C)C(=O)N[C@@H](CC(=O)O)C(=O)N[C@@H](CCCNC(=N)N)C(=O)N[C@H](C(N)=O)[C@@H](C)CC)C1 [JAL-1024, Occ-Sni-Phe-nle-Leu-Hyp-Leu-Asp-Arg-Ile-NH2] (Octanoyl-[X2]F[dNle]L[Hyp]LDRI-NH2)
CCCCCCCC(=O)N[C@H](C)C(=O)N[C@@H](Cc1ccccc1)C(=O)N[C@H](CC(C)C)C(=O)N[C@@H](CC(C)C)C(=O)N1CCC[C@H]1C(=O)N(C)[C@@H](CC(C)C)C(=O)N[C@@H](CC(=O)O)C(=O)N[C@@H](CCCNC(=N)N)C(=O)N[C@H](C(N)=O)[C@@H](C)CC [JAL-1039, Occ-ala-Phe-leu-Leu-Pro-Nml-Asp-Arg-Ile-NH2] (HELM PEPTIDE1{[CCCCCCCC(=O)[*:2]].[dA].F.[dL].L.P.[meL].D.R.I.[am]}$$$$V2.0)
CCCCCCCC(=O)N1CCC[C@H](C(=O)N[C@@H](Cc2ccccc2)C(=O)N[C@H](CC(C)C)C(=O)N[C@@H](CC(C)C)C(=O)N2CCC[C@H]2C(=O)N(C)[C@@H](CC(C)C)C(=O)N[C@@H](CC(=O)O)C(=O)N[C@@H](CCCNC(=N)N)C(=O)N[C@H](C(N)=O)[C@@H](C)CC)C1 [JAL-1040, Occ-Sni-Phe-leu-Leu-Pro-Nml-Asp-Arg-Ile-NH2] (HELM PEPTIDE1{[CCCCCCCC(=O)[*:2]].[O=C([C@H]1CCCN([*:1])C1)[*:2]].F.[dL].L.P.[meL].D.R.I.[am]}$$$$V2.0)
CCCCCCCC(=O)N[C@H](C)C(=O)N[C@@H](Cc1ccc(Cl)cc1)C(=O)N[C@H](CC(C)C)C(=O)N[C@@H](CC(C)C)C(=O)N1C[C@H](O)C[C@H]1C(=O)N(C)[C@@H](CC(C)C)C(=O)N[C@@H](CC(=O)O)C(=O)N[C@@H](CCCNC(=N)N)C(=O)N[C@H](C(N)=O)[C@@H](C)CC [JAL-1043, Occ-ala-Pcf-leu-Leu-Hyp-Nml-Asp-Arg-Ile-NH2] (HELM PEPTIDE1{[CCCCCCCC(=O)[*:2]].[dA].[O=C([C@H](Cc1ccc(Cl)cc1)N[*:1])[*:2]].[dL].L.[Hyp].[meL].D.R.I.[am]}$$$$V2.0)
CCCCCCCC(=O)N[C@H](C)C(=O)N[C@@H](Cc1ccccc1)C(=O)N[C@H](CCCC)C(=O)N[C@@H](CC(C)C)C(=O)N1C[C@H](O)C[C@H]1C(=O)N(C)[C@@H](CC(C)C)C(=O)N[C@@H](CC(=O)O)C(=O)N[C@@H](CCCNC(=N)N)C(=O)N[C@H](C(N)=O)[C@@H](C)CC [JAL-1044, Occ-ala-Phe-nle-Leu-Hyp-Nml-Asp-Arg-Ile-NH2] (HELM PEPTIDE1{[CCCCCCCC(=O)[*:2]].[dA].F.[CCCC[C@@H](N[*:1])C(=O)[*:2]].L.[Hyp].[meL].D.R.I.[am]}$$$$V2.0)
CCCCCCCC(=O)N[C@H](C)C(=O)N[C@@H](Cc1ccc(Cl)cc1)C(=O)N[C@H](CC(C)C)C(=O)N[C@@H](CC(C)C)C(=O)N1C[C@H](O)C[C@H]1C(=O)N[C@@H](CC(C)C)C(=O)N[C@@H](CC(=O)O)C(=O)N[C@@H](CCCNC(=N)N)C(=O)N[C@H](C(N)=O)[C@@H](C)CC [JAL-1050, Occ-ala-Pcf-leu-Leu-Hyp-Leu-Asp-Arg-Ile-NH2] (HELM PEPTIDE1{[CCCCCCCC(=O)[*:2]].[dA].[O=C([C@H](Cc1ccc(Cl)cc1)N[*:1])[*:2]].[dL].L.[Hyp].L.D.R.I.[am]}$$$$V2.0)
CCCCCCCC(=O)N[C@H](C)C(=O)N(C)[C@@H](Cc1ccccc1)C(=O)N[C@H](CC(C)C)C(=O)N[C@@H](CC(C)C)C(=O)N1C[C@H](O)C[C@H]1C(=O)N[C@@H](CC(C)C)C(=O)N[C@@H](CC(=O)O)C(=O)N[C@@H](CCCNC(=N)N)C(=O)N[C@H](C(N)=O)[C@@H](C)CC [JAL-1052, Occ-ala-Nmf-leu-Leu-Hyp-Leu-Asp-Arg-Ile-NH2] (HELM PEPTIDE1{[CCCCCCCC(=O)[*:2]].[dA].[meF].[dL].L.[Hyp].L.D.R.I.[am]}$$$$V2.0)
CCCCCCCC(=O)N1CCC[C@@H]1C(=O)N[C@@H](Cc1ccccc1)C(=O)N[C@H](CC(C)C)C(=O)N[C@@H](CC(C)C)C(=O)N1C[C@H](O)C[C@H]1C(=O)N[C@@H](CC(C)C)C(=O)N[C@@H](CC(=O)O)C(=O)N[C@@H](CCCNC(=N)N)C(=O)N[C@H](C(N)=O)[C@@H](C)CC [JAL-1053, Occ-pro-Phe-leu-Leu-Hyp-Leu-Asp-Arg-Ile-NH2] (HELM PEPTIDE1{[CCCCCCCC(=O)[*:2]].[dP].F.[dL].L.[Hyp].L.D.R.I.[am]}$$$$V2.0)
CCCCCCCC(=O)N1CCCC[C@@H]1C(=O)N[C@@H](Cc1ccccc1)C(=O)N[C@H](CC(C)C)C(=O)N[C@@H](CC(C)C)C(=O)N1C[C@H](O)C[C@H]1C(=O)N[C@@H](CC(C)C)C(=O)N[C@@H](CC(=O)O)C(=O)N[C@@H](CCCNC(=N)N)C(=O)N[C@H](C(N)=O)[C@@H](C)CC [JAL-1054, Occ-pip-Phe-leu-Leu-Hyp-Leu-Asp-Arg-Ile-NH2] (HELM PEPTIDE1{[CCCCCCCC(=O)[*:2]].[O=C([C@H]1CCCCN1[*:1])[*:2]].F.[dL].L.[Hyp].L.D.R.I.[am]}$$$$V2.0)
CCCCCCCC(=O)N[C@H](C)C(=O)N[C@@H](Cc1ccccc1)C(=O)N[C@H](CCCN)C(=O)N[C@@H](CC(C)C)C(=O)N1C[C@H](O)C[C@H]1C(=O)N(C)[C@@H](CC(C)C)C(=O)N[C@@H](CC(=O)O)C(=O)N[C@@H](CCCNC(=N)N)C(=O)N[C@H](C(N)=O)[C@@H](C)CC [JAL-1061, Occ-ala-Phe-orn-Leu-Hyp-Nml-Asp-Arg-Ile-NH2] (HELM PEPTIDE1{[CCCCCCCC(=O)[*:2]].[dA].F.[NCCC[C@@H](N[*:1])C(=O)[*:2]].L.[Hyp].[meL].D.R.I.[am]}$$$$V2.0)
CCCCCCCC(=O)N1CCCC[C@@H]1C(=O)N(C)[C@@H](Cc1ccccc1)C(=O)N[C@H](CCCNC(=N)N)C(=O)N[C@@H](CC(C)C)C(=O)N1CCC[C@H]1C(=O)N(C)[C@@H](CC(C)C)C(=O)N[C@@H](CC(=O)O)C(=O)N[C@@H](CCCNC(=N)N)C(=O)N[C@H](C(N)=O)[C@@H](C)CC [JAL-1077, Occ-pip-Nmf-arg-Leu-Pro-Nml-Asp-Arg-Ile-NH2] (HELM PEPTIDE1{[CCCCCCCC(=O)[*:2]].[O=C([C@H]1CCCCN1[*:1])[*:2]].[meF].[dR].L.P.[meL].D.R.I.[am]}$$$$V2.0)
CCCCCCCC(=O)N1CCCC[C@@H]1C(=O)N[C@@H](Cc1ccccc1)C(=O)N[C@H](CCCNC(=N)N)C(=O)N[C@@H](CC(C)C)C(=O)N1CCC[C@H]1C(=O)N(C)[C@@H](CC(C)C)C(=O)N[C@@H](CC(=O)O)C(=O)N[C@@H](CCCNC(=N)N)C(=O)N[C@H](C(N)=O)[C@@H](C)CC [JAL-1078, Occ-pip-Phe-arg-Leu-Pro-Nml-Asp-Arg-Ile-NH2] (HELM PEPTIDE1{[CCCCCCCC(=O)[*:2]].[O=C([C@H]1CCCCN1[*:1])[*:2]].F.[dR].L.P.[meL].D.R.I.[am]}$$$$V2.0)
CCCCCCCC(=O)N1CCCC[C@@H]1C(=O)N[C@@H](Cc1ccccc1)C(=O)N[C@H](CCCNC(=N)N)C(=O)N[C@@H](CC(C)C)C(=O)N1C[C@H](O)C[C@H]1C(=O)N(C)[C@@H](CC(C)C)C(=O)N[C@@H](CC(=O)O)C(=O)N[C@@H](CCCNC(=N)N)C(=O)N[C@H](C(N)=O)[C@@H](C)CC [JAL-1087, Occ-pip-Phe-arg-Leu-Hyp-Nml-Asp-Arg-Ile-NH2] (HELM PEPTIDE1{[CCCCCCCC(=O)[*:2]].[O=C([C@H]1CCCCN1[*:1])[*:2]].F.[dR].L.[Hyp].[meL].D.R.I.[am]}$$$$V2.0)
CCCCCCCC(=O)N[C@H](C)C(=O)N[C@@H](Cc1ccc(Br)cc1)C(=O)N[C@H](CCCNC(=N)N)C(=O)N[C@@H](CC(C)C)C(=O)N1C[C@H](O)C[C@H]1C(=O)N[C@@H](CC(C)C)C(=O)N[C@@H](CC(=O)O)C(=O)N[C@@H](CCCNC(=N)N)C(=O)N[C@H](C(N)=O)[C@@H](C)CC [JAL-1116, Occ-ala-Pbf-arg-Leu-Hyp-Leu-Asp-Arg-Ile-NH2] (HELM PEPTIDE1{[CCCCCCCC(=O)[*:2]].[dA].[O=C([C@H](Cc1ccc(Br)cc1)N[*:1])[*:2]].[dR].L.[Hyp].L.D.R.I.[am]}$$$$V2.0)
CCCCCCCC(=O)N[C@H](C)C(=O)N[C@@H](Cc1ccccc1)C(=O)N[C@H](CCCNC(=N)N)C(=O)N[C@@H](CC(C)C)C(=O)N1C[C@H](O)C[C@H]1C(=O)N[C@@H](CC(C)(C)C)C(=O)N[C@@H](CC(=O)O)C(=O)N[C@@H](CCCNC(=N)N)C(=O)N[C@H](C(N)=O)[C@@H](C)CC [JAL-1225, Occ-ala-Phe-arg-Leu-Hyp-Npg-Asp-Arg-Ile-NH2] (HELM PEPTIDE1{[CCCCCCCC(=O)[*:2]].[dA].F.[dR].L.[Hyp].[CC(C)(C)C[C@H](N[*:1])C(=O)[*:2]].D.R.I.[am]}$$$$V2.0)
